Source: patent US20050222275A1 (priority 2001, published 2005)
Like-named read-outs stand apart in the source and are kept apart here.

Columns and labels:
caseic amyloidosis = settings: mouse, in vivo, po; cited from earlier work
amyloid fibrils = settings: cited from earlier work
[1] = system: Scrapie (IC) infected Hamsters; assay type: in vivo, Syrian hamsters; settings: for Incubation period: IC scrapie-infected hamsters, 7.5% (w/v) DMSO in drinking water, median; for Percentage of infectivity (%): relative to control
amyloidotic diseases = settings: human, in vivo; cited from earlier work
[2] = system: Scrapie (IP) infected Hamsters; settings: for Incubation period: IP scrapie-infected hamsters, 7.5% (w/v) DMSO in drinking water
[3] = in vivo, po; cited from earlier work
CJD patients = settings: human, in vivo
Aβ peptide = target: T1, Aβ peptide (Homo sapiens, UniProt P05067); settings: cited from earlier work
T1 construct: Aβ peptide intermediate with a high β-sheet content
T1 sequence (P05067 672-711 limits assumed): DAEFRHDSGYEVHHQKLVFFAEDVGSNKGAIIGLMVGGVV

[4] = system: scrapie-infected neuroblastoma cells (ScN2a); settings: cited from earlier work
[5] = in vivo; cited from earlier work
PrP^Sc [6] = settings: human, in vivo
PrP^Sc [7] = target: PrP^Sc (Mesocricetus auratus, UniProt P04273); assay type: in vivo, hamster; settings: IC-inoculated, DMSO 14-end group, brain homogenate
PrP^Sc (Mesocricetus auratus, UniProt P04273), sequence (P04273 23-231 limits assumed): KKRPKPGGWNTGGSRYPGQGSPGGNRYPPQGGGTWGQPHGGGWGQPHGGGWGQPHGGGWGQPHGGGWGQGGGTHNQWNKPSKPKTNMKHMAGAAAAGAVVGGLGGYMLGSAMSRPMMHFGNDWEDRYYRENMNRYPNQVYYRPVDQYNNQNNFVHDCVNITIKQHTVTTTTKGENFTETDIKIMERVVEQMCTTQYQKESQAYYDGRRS

For `C[S+](C)[O-]` [DMSO, dimethyl sulfoxide], the “development of the disease” value (caseic amyloidosis) is listed as “prevented the development of the disease”, the “assembly of amyloid fibrils” value (amyloid fibrils) is listed as “blocks the assembly of amyloid fibrils” and the “disassembly of preexisting fibrils” value (amyloid fibrils) is listed as “does not interfere”. The “Incubation period” value ([1]; 0-14 dpi) was 85 days, the “Incubation period” value ([1]; 0-end dpi) was 101 days and the “Incubation period” value ([1]; 14-end dpi) was 107 days. For the same compound, the “Incubation period” value ([1]; 55-end dpi) was 91 days, the “effect on incubation time compared with control group” value ([1]; IC, 0-14 group) was “significant deleterious effect” and the “Infectivity (Log I.D 50)” value ([1]; IC, DMSO treatment 0-14 dpi) was 7.1 Log I.D 50. The “Variance from control group [P < 0.05]” value ([1]; IC, DMSO treatment 0-14 dpi) was “+ ([+] means statistically significant difference [p < 0.05])”, the “Percentage of infectivity (%)” value ([1]; IC, DMSO treatment 0-14 dpi) was 1258% and the “Infectivity (Log I.D 50)” value ([1]; IC, DMSO treatment 0-end dpi) was 4.9 Log I.D 50. For the same compound, the “Variance from control group [P < 0.05]” value ([1]; IC, DMSO treatment 0-end dpi) was “+ ([+] means statistically significant difference [p < 0.05])”, the “Percentage of infectivity (%)” value ([1]; IC, DMSO treatment 0-end dpi) was 3.16% and the “Infectivity (Log I.D 50)” value ([1]; IC, DMSO treatment 14-end dpi) was 4.5 Log I.D 50. The “Variance from control group [P < 0.05]” value ([1]; IC, DMSO treatment 14-end dpi) was “+ ([+] means statistically significant difference [p < 0.05])”, the “Percentage of infectivity (%)” value ([1]; IC, DMSO treatment 14-end dpi) was 3.16% and the “Infectivity (Log I.D 50)” value ([1]; IC, DMSO treatment 55-end dpi) was 6.4 Log I.D 50. For the same compound, the “difference from control group in incubation time” value ([1]; IC, DMSO-treated from 55 dpi-end) was “no statistically significant difference”, the “incubation time for the disease compared with control group” value ([1]; IC, treatment plans 0-end or 14-end) was “statistically significant increase” and the “patients showing clinical improvement” value (amyloidotic diseases) was “about 50%”. The “urine of patients after DMSO” value (amyloidotic diseases) was “contains material that can form fibrils”, the “Incubation period” value ([2]; 0 - end dpi) was 127.6 days and the “Incubation period” value ([2]; 28 - end dpi) was 126.6 days. For the same compound, the “Incubation period” value ([2]; 55 - end dpi) was 136.8 days, the “Variance from control group [P < 0.05]” value ([2]; IP, DMSO treatment 0 - end dpi) was “+ ([+] means statistically significant difference [p < 0.05])” and the “Variance from control group [P < 0.05]” value ([2]; IP, DMSO treatment 28 - end dpi) was “+ ([+] means statistically significant difference [p < 0.05])”. The “Variance from control group [P < 0.05]” value ([2]; IP, DMSO treatment 55 - end dpi) was “+ ([+] means statistically significant difference [p < 0.05])”, the “overall effect for the animals treated with DMSO” value ([2]; IP, all treatment plans of Table 2) was “overall beneficial effect” and the “beneficial effect on longevity” value ([2]; IP, groups 0-end and 28-end) was “marginal”. For the same compound, the longevity ([2]; IP, treated only from 55 dpi onwards) was “most remarkable longevity”, the “adverse DMSO effects” value ([2]; hamsters, DMSO in drinking water) was “weight loss” and the “time to peak concentration” value [3] was 4 h. For the same compound, the “cerebellar syndrome during the treatment” value (CJD patients) was “progressed”, the “cognitive decline during the treatment” value (CJD patients) was “no further cognitive decline” and the “deterioration, medical evaluation” value (CJD patients) was “slower than expected”. The “titubation and tremor, medical evaluation” value (CJD patients) was “improvement”, the “formation of Aβ peptide intermediate with a high β-sheet content” value (Aβ peptide) was “block the formation” and the “formation of PrP^Sc from newly synthesized PrP^C” value [4] was “interfered with the formation of PrP^Sc”. For the same compound, the side effects [5] was “no serious side effects”, the “secreted PrP^Sc in the urine” value (PrP^Sc [6]) was “continuously increasing amounts” and the “PrP^Sc in sample from untreated animal relative to DMSO-treated animal (band intensity)” value (PrP^Sc [7]; 90 dpi) was “about 10 times”. For the same compound, the “PrP in DMSO-treated animals at 90-110 dpi compared with untreated animals at 60 dpi” value (PrP^Sc [7]) was “equivalent” and the “PrP^Sc in DMSO-treated animals at 110 dpi compared with untreated animals at 90 dpi (final stages)” value (PrP^Sc [7]) was “equivalent amounts”.
